The values below come from PubChem BioAssay (NCI).

Among the test systems are SW-620 colon; HOP-92 NSCLC; A549 NSCLC; SK-OV-3 ovarian; HCT-15 colon; SK-MEL-28 melanoma; TK-10 renal; ACHN renal.
Common to all, as to test: NCI-60 cell line screen, 48 h

Molecules are shown by their SMILES. Several values for one entry are separate records, joined by “and”; a condition that tells them apart may be missing. Equal values may be shown once.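 A five-concentration, 48-hour dose response in 96-well plates underlies each endpoint, interpolated linearly between surrounding concentrations. The concentration for 50% growth inhibition is given as GI50. TGI: concentration producing complete growth inhibition.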 Where only a bound is given, the exact number is not on record here.

For `CCCCCCCCCCC(CN(CC)CC)C(O)c1ccccc1` (stereo unspecified), the GI50 in the test on SW-620 colon was 1.8 µM; in the test with HOP-92 NSCLC it was 1.27 µM; with A549 NSCLC, 2.49 µM; in the test with SK-OV-3 ovarian, 2.78 µM; in the test on HCT-15 colon, 1.31 µM; in the test on SK-MEL-28 melanoma it was 1.7 µM. In addition, the GI50 was 1.65 µM in the test on TK-10 renal and 1.61 µM in the test with ACHN renal. Further, the TGI is 3.43 µM in the test on SW-620 colon; 2.98 µM in the test with HOP-92 NSCLC; 5.41 µM with A549 NSCLC; 9.52 µM in the test on SK-OV-3 ovarian; 2.77 µM with HCT-15 colon; 3.16 µM in the test on SK-MEL-28 melanoma. Besides, the TGI worked out at 3.22 µM with TK-10 renal and 3.07 µM with ACHN renal.

`O=C1/C(=C/c2ccc(C(F)(F)F)cc2)COc2ccc(O)cc21`: the GI50 in the test with SW-620 colon was 1.71 µM; with HOP-92 NSCLC, 11.8 µM; in the test on A549 NSCLC, 11.8 µM; in the test with SK-OV-3 ovarian, 16.2 µM; with HCT-15 colon, 1.66 µM; in the test with SK-MEL-28 melanoma, 1.79 µM. The GI50 in the test on TK-10 renal was 3.7 µM; in the test on ACHN renal, 1.84 µM. The TGI with SW-620 colon came to 3.4 µM; in the test with HOP-92 NSCLC, 24.7 µM; in the test with A549 NSCLC, 24.9 µM; in the test on SK-OV-3 ovarian, 29.7 µM; with HCT-15 colon it was 3.47 µM; with SK-MEL-28 melanoma, 3.8 µM. Besides, the results for the TGI with TK-10 renal and in the test on ACHN renal were 14.3 µM and 3.53 µM, respectively.

Take `CN1CCN(c2ccc([N+](=O)[O-])c3no[n+]([O-])c23)CC1`: the GI50 is 0.117 µM in the test on SW-620 colon; 0.188 µM with HOP-92 NSCLC; 0.385 µM in the test on A549 NSCLC; 0.87 µM in the test on SK-OV-3 ovarian; 0.227 µM with HCT-15 colon; 0.991 µM with SK-MEL-28 melanoma. Further, the GI50 is 0.454 µM with TK-10 renal and 0.158 µM with ACHN renal. The TGI in the test on SW-620 colon was 0.828 µM and 0.261 µM; with HOP-92 NSCLC it was 1.2 µM; with A549 NSCLC it was 3.53 µM and 2.06 µM; with SK-OV-3 ovarian, 1.73 µM and 2.12 µM; in the test with HCT-15 colon, 2.15 µM and 1.21 µM; in the test on SK-MEL-28 melanoma, 5.59 µM and 2.67 µM. Moreover, the TGI in the test with TK-10 renal was 2.33 µM and 1.49 µM; in the test with ACHN renal, 0.787 µM and 0.954 µM.

Take `CC(C)c1ccc(O)c(O)c(=O)c1` (tested in a mixture with another compound): the TGI in the test on SW-620 colon is over 100 µM; with HOP-92 NSCLC it was over 83 µM; with A549 NSCLC it was over 100 µM; in the test on SK-OV-3 ovarian, over 100 µM; in the test on HCT-15 colon it was over 100 µM; with SK-MEL-28 melanoma, 23.8 µM. The TGI in the test with TK-10 renal stood at 9.6 µM; in the test with ACHN renal it was 13 µM.

Take `NC(N)=N/N=C(/c1ccccc1)c1ccc(O)cc1O`: the TGI with SW-620 colon, with HOP-92 NSCLC, with A549 NSCLC, in the test with SK-OV-3 ovarian, in the test on HCT-15 colon and in the test on SK-MEL-28 melanoma was over 100 µM in each case. Moreover, the TGI in the test on TK-10 renal and with ACHN renal was over 100 µM in each case.

Regarding `COc1ccc(Cn2cc3c(c2-c2ccccc2)CCc2cncnc2-3)cc1`, the GI50 was 3.65 µM in the test on SW-620 colon; 10.8 µM with HOP-92 NSCLC; 3.55 µM with A549 NSCLC; 9.04 µM in the test with SK-OV-3 ovarian; 4.3 µM in the test on HCT-15 colon; 8.71 µM with SK-MEL-28 melanoma. Besides, the GI50 in the test on TK-10 renal is 8.09 µM; in the test with ACHN renal it was 11.3 µM. The TGI worked out at 13.9 µM with SW-620 colon; 28.5 µM in the test with HOP-92 NSCLC; 14.1 µM in the test on A549 NSCLC; 31.2 µM in the test with SK-OV-3 ovarian; 16.5 µM with HCT-15 colon; 21.6 µM in the test with SK-MEL-28 melanoma. Also, the TGI was determined as 26.6 µM in the test on TK-10 renal and 35.8 µM with ACHN renal.

As for `COc1cc2c(cc1-c1c(C)noc1C)ncc1[nH]c(=O)n([C@H](C)c3ccccn3)c12`, the GI50 with SW-620 colon was 28.1 µM; with HOP-92 NSCLC, 0.0677 µM; in the test with A549 NSCLC, 6.17 µM; in the test on SK-OV-3 ovarian, 0.6 µM; in the test with HCT-15 colon it was 0.807 µM; in the test with SK-MEL-28 melanoma it was 0.695 µM. Further, the GI50 with TK-10 renal was 0.257 µM; in the test on ACHN renal, 1.2 µM. For the same compound, the TGI in the test with SW-620 colon was over 100 µM; in the test on HOP-92 NSCLC, 37.3 µM; in the test with A549 NSCLC, over 100 µM; in the test on SK-OV-3 ovarian, over 50.1 µM; in the test on HCT-15 colon it was over 100 µM; with SK-MEL-28 melanoma it was over 90.7 µM. The TGI was 22 µM in the test with TK-10 renal and over 100 µM with ACHN renal.

For the compound `Oc1oc(-c2ccccc2)nc1/C=C1/C=NN=N1`, the TGI in the test with SW-620 colon, with HOP-92 NSCLC, in the test with A549 NSCLC, in the test on SK-OV-3 ovarian, in the test on HCT-15 colon and in the test on SK-MEL-28 melanoma was over 100 µM in each case. Moreover, the TGI in the test with TK-10 renal and with ACHN renal was over 100 µM throughout.

With `Cc1cccc2cc3ccc4ccccc4c3cc12`, the TGI in the test on SW-620 colon, in the test on HOP-92 NSCLC, with A549 NSCLC, with SK-OV-3 ovarian, in the test with HCT-15 colon and in the test with SK-MEL-28 melanoma was over 100 µM in each case. In addition, the TGI with TK-10 renal and with ACHN renal was over 100 µM throughout.

For the compound `CCN1CCN(c2nc(C)cc(N(CCCNc3ccnc4cc(Cl)ccc34)Cc3ccco3)n2)CC1`, the GI50 with SW-620 colon was 3.12 µM; with HOP-92 NSCLC, 2.26 µM; in the test with A549 NSCLC it was 4.51 µM; in the test on SK-OV-3 ovarian, 7.82 µM; with HCT-15 colon it was 2.34 µM; in the test with SK-MEL-28 melanoma it was 1.82 µM. The values for the GI50 with TK-10 renal and in the test on ACHN renal were 2.13 µM and 2.58 µM, respectively. In addition, the TGI is 13 µM in the test on SW-620 colon; 6.72 µM with HOP-92 NSCLC; 16.5 µM in the test on A549 NSCLC; 30.7 µM in the test on SK-OV-3 ovarian; 11.6 µM in the test with HCT-15 colon; 3.6 µM in the test on SK-MEL-28 melanoma. Further, the TGI stood at 4.9 µM in the test with TK-10 renal and 6.99 µM in the test with ACHN renal.

With `COC(=O)c1cccc2c1Oc1ccccc1S2`, the TGI with SW-620 colon, with HOP-92 NSCLC, with A549 NSCLC, in the test on SK-OV-3 ovarian, in the test on HCT-15 colon and with SK-MEL-28 melanoma was over 100 µM each time. Moreover, the TGI in the test on TK-10 renal and with ACHN renal was over 100 µM each time.
